Test results reported in US12246008B2, “4-amino or 4-alkoxy-substituted aryl sulfonamide compounds with selective activity in voltage-gated sodium channels” (Merck Sharp & Dohme LLC, priority 2018, dated 2025).
Where two headings read alike, the source gives them in different places.

Key:
Assay in all cases: Qube automated patch-clamp assay, inhibition of sodium current
Type in all cases: cell-based
[1] = biological target: T1, human Nav1.6 channels stably expressed in HEK 293 cells (Homo sapiens, UniProt Q9UQD0); conditions: holding potential −65 mV; max concentration tested 33750 nM
T1 construct: expressed in transfected cells; host or cells: HEK 293
Experimental: (§1) Qube™ Experimental Procedure:
(§2) Compounds were tested on human Nav1.7 and Nav1.6 channels stably expressed in HEK 293 cells. […] Cells were sealed on a planar substrate using the multihole technology. Cells expressing human Nav1.7 channels were held at −75 mV or −80 mV. Cells expressing human Nav1.6 channels were held at −65 mV. A train of 6 consecutive test pulses to −10 mV, preceded by 8 s prepulses to −115 mV, was applied at a frequency of 0.1 Hz before and after compound addition. Cells in each Qchip well were incubated in compound for 5 minutes before measuring inhibition. Peak currents were measured in control conditions and after compound addition. The following recording solutions were used (mM). External Nav1.6: 150 NaCl, 2 CaCl2), 5 KCl, 1 Mg Cl2, 10 HEPES, 12 Dextrose; external Nav1.7: 40 NaCl, 120 NMDG, 1 KCl, 0.5 MgCl2, 5 HEPES, 2.7 CaCl2); internal: 120 CsF, 30 CsCl, 10 EGTA, 5 HEPES, 5 NaF, 2 MgCl2. Compounds were prepared as 10 mM stock solutions in DMSO. 10 point compound titrations were generated using the Echo acoustic liquid handling instrument and glass coated 384 well plates. The final DMSO concentration in the assay was 0.3%. For all electrophysiology experiments, offline analysis was used to determine percent inhibition as a function of drug concentration. IC50 values were determined by fitting to the Hill equation.
(§3) The various compounds in EXAMPLES 1 through 43 and TABLE 2 exemplified above were assayed for activity and selectivity using the foregoing Qube® technique. The results are reported in TABLE 3 in a format expressing the identification of the compound with reference EXAMPLE followed by the observed potency in nM for NaV1.7, NaV1.6 and NaV1.5. NA signifies not applicable and the max concentration tested is 33750 nM.

[2] = biological target: T2, human Nav1.7 channels stably expressed in HEK 293 cells (Homo sapiens, UniProt Q15858); conditions: max concentration tested 33750 nM, read-out: NaV1.7 (nM)
T2 construct: expressed in transfected cells; host or cells: HEK 293
Experimental: as §1, §2, §3

NaV1.5 = NaV1.5 (Homo sapiens, UniProt Q14524); conditions: holding potential −80 mV; max concentration tested 33750 nM
Experimental: as §2, §3

[3] = holding potential −75 mV, −75 mV
[4] = holding potential −80 mV, −80 mV

T1 sequence (Q9UQD0 whole entry): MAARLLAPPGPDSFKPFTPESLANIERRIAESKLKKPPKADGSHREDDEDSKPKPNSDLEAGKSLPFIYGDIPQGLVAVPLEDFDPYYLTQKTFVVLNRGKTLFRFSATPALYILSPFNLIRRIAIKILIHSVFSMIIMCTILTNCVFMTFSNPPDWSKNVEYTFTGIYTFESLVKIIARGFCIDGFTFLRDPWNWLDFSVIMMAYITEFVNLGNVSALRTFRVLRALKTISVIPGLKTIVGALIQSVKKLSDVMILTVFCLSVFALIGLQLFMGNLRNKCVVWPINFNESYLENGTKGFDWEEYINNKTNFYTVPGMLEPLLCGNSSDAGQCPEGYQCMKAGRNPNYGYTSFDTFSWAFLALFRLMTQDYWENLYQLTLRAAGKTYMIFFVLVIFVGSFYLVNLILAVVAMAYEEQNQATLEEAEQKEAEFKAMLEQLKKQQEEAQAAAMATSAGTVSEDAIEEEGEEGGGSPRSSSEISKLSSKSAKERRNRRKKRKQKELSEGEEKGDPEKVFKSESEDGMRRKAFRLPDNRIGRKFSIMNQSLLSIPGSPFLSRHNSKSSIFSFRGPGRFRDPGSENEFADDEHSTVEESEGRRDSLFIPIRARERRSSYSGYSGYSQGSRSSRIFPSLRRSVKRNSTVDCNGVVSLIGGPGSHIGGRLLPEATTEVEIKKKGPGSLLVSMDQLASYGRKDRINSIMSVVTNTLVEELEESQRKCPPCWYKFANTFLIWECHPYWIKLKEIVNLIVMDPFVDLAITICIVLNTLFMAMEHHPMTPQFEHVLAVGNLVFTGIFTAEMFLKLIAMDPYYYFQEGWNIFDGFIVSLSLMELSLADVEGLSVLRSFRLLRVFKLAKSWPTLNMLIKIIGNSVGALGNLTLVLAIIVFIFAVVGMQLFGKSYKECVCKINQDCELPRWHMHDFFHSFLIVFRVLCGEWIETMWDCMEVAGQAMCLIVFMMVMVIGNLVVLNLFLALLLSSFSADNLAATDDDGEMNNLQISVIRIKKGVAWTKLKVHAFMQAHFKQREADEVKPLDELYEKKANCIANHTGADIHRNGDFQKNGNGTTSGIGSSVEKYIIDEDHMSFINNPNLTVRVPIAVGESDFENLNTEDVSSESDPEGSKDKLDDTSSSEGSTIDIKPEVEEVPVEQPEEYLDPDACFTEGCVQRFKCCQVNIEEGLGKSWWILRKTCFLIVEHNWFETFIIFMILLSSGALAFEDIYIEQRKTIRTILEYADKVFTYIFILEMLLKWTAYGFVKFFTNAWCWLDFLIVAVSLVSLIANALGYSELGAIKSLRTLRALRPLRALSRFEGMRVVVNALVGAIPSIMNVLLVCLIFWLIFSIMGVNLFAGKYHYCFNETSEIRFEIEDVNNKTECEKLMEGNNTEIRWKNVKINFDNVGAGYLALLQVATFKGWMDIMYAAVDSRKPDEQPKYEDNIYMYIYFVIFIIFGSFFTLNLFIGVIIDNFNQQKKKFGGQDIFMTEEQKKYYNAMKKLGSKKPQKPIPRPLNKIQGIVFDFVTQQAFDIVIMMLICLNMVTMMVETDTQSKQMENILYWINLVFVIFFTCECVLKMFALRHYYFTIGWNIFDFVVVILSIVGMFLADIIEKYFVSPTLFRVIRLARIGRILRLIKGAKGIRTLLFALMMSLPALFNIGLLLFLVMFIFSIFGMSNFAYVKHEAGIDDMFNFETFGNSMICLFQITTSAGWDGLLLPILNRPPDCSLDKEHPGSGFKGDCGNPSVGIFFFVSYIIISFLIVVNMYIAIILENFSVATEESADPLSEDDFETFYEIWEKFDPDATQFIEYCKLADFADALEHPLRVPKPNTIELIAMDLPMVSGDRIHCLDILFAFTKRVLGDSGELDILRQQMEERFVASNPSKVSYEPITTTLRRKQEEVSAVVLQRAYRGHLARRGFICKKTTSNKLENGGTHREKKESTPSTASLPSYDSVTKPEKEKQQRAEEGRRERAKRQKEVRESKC
NaV1.5, sequence (Q14524 whole entry): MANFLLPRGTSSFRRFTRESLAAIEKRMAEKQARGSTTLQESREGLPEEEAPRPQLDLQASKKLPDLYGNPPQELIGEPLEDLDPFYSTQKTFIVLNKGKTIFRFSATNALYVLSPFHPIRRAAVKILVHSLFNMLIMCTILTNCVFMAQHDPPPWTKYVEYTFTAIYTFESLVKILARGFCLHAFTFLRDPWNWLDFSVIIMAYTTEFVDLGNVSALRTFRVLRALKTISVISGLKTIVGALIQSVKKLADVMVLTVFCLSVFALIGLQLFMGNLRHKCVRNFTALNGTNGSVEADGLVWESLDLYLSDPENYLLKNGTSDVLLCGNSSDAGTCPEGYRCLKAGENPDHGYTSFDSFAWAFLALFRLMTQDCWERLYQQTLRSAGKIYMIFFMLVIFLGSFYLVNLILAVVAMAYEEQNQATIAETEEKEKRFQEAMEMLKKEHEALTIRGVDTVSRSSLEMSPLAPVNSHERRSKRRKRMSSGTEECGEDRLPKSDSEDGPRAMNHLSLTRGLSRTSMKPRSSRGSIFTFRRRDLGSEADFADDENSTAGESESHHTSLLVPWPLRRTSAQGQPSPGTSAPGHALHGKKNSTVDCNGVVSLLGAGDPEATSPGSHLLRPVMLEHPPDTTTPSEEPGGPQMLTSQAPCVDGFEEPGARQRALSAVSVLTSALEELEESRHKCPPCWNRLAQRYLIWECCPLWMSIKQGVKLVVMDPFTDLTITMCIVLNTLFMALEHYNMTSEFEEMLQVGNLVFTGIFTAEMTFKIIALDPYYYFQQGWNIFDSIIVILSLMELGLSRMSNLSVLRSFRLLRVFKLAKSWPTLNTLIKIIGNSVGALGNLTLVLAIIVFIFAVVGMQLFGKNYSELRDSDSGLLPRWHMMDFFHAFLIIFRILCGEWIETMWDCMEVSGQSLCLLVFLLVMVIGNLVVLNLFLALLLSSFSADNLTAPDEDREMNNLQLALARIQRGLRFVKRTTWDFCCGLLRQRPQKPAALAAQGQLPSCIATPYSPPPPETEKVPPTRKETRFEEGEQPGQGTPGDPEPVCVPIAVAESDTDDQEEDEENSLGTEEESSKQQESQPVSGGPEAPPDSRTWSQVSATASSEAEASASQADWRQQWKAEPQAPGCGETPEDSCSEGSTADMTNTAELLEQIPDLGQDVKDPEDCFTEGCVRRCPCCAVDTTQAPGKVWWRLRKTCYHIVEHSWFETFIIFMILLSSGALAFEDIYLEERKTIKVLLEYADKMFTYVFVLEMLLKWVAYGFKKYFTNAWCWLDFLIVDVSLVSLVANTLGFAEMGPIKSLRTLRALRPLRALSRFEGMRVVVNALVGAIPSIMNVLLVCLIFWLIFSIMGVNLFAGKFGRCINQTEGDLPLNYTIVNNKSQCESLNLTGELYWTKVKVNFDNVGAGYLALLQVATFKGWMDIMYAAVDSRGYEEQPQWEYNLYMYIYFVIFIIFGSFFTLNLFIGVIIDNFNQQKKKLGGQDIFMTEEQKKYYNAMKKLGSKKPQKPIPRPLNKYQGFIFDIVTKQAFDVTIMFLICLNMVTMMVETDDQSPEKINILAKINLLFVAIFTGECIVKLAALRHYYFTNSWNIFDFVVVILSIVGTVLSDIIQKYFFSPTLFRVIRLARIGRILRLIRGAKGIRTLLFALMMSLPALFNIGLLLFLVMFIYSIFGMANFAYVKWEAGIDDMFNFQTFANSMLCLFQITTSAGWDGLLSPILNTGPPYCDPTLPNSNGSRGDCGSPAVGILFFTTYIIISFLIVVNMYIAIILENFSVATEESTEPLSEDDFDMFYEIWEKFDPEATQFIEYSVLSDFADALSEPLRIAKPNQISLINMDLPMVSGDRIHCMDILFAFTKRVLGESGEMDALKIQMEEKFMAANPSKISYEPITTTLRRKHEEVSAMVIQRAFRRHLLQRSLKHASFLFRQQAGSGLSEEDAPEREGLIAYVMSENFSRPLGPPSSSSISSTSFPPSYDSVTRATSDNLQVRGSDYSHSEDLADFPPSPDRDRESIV

SMILES: CC(C)N(CC(CNc1cc(F)c(S(=O)(=O)Nc2ncns2)cc1F)[C@@H](C)N)C[C@@H](C)N (single isomer, unassigned) [Example 38]
- IC50 [1]: > 33800 nM
- IC50 [2, 3]: 109 nM
- IC50 (NaV1.5): > 33800 nM

SMILES: CC(C)N(CC(CNc1cc(F)c(S(=O)(=O)Nc2ncns2)cc1F)[C@@H](C)N)C[C@@H](C)N (single isomer, unassigned) [Example 39]
- IC50 [1]: > 33800 nM
- IC50 [2, 4]: 210 nM
- IC50 (NaV1.5): > 33800 nM

SMILES: C[C@@H](N)[C@@H](CC(C)(C)CCN)C1CCc2cc(S(=O)(=O)Nc3ncns3)c(F)cc2O1 (single isomer, unassigned) [Example 42]
- IC50 [1]: > 33800 nM
- IC50 [2, 4]: 306 nM
- IC50 (NaV1.5): > 33800 nM

SMILES: C[C@@H](N)C(CNc1cc(F)c(S(=O)(=O)Nc2ncns2)cc1F)CC1CCCC1CN (single isomer, unassigned) [Example 46]
- IC50 [1]: > 33800 nM
- IC50 [2, 4]: 57 nM
- IC50 (NaV1.5): > 33800 nM

SMILES: C[C@@H](N)C(CNc1cc(F)c(S(=O)(=O)Nc2ncns2)cc1F)CC1(C)CCC1CN (single isomer, unassigned) [Example 53]
- IC50 [1]: > 33800 nM
- IC50 [2, 4]: 165 nM
- IC50 (NaV1.5): > 33800 nM

SMILES: C[C@@H](N)C(CNc1cc(F)c(S(=O)(=O)Nc2ncns2)cc1Br)CC1(CCN)CC(F)(F)C1 (single isomer, unassigned) [Example 57]
- IC50 [1]: 224 nM
- IC50 [2, 4]: 10 nM
- IC50 (NaV1.5): > 33800 nM

SMILES: C[C@@H](N)C(CNc1ccc(S(=O)(=O)Nc2ncns2)c(F)c1)CC1(CCN)CC(F)(F)C1 (single isomer, unassigned) [Example 59]
- IC50 [1]: > 33800 nM
- IC50 [2, 4]: 38 nM
- IC50 (NaV1.5): > 33800 nM

SMILES: C[C@@H](N)C(CNc1cc(F)c(S(=O)(=O)Nc2ncns2)cc1F)CC1CCCCC1CCN (single isomer, unassigned) [Example 60]
- IC50 [1]: > 33800 nM
- IC50 [2, 4]: 12 nM
- IC50 (NaV1.5): 20600 nM

SMILES: C[C@@H](N)C(CNc1cc(F)c(S(=O)(=O)Nc2ncns2)cc1F)CC1CCCCC1CCN (single isomer, unassigned) [Example 61]
- IC50 [1]: > 33800 nM
- IC50 [2, 4]: 16 nM
- IC50 (NaV1.5): > 33800 nM

SMILES: C[C@@H](N)C(CNc1cc(F)c(S(=O)(=O)Nc2ncns2)cc1F)CC1CCCCC1CCN (single isomer, unassigned) [Example 62]
- IC50 [1]: > 33800 nM
- IC50 [2, 4]: 56 nM
- IC50 (NaV1.5): > 33800 nM

SMILES: C[C@@H](N)C(CNc1cc(F)c(S(=O)(=O)Nc2ncns2)cc1F)CC1CCCCC1CCN (single isomer, unassigned) [Example 63]
- IC50 [1]: > 33800 nM
- IC50 [2, 4]: 156 nM
- IC50 (NaV1.5): > 33800 nM

SMILES: C[C@@H](N)C(CNc1cc(F)c(S(=O)(=O)Nc2ncns2)cc1F)CC1CCCCC1CCN (single isomer, unassigned) [Example 65]
- IC50 [1]: > 33800 nM
- IC50 [2, 4]: 271 nM
- IC50 (NaV1.5): > 33800 nM

SMILES: C[C@@H](N)C(CNc1cc(F)c(S(=O)(=O)Nc2ncns2)cc1F)CC1CC2(CC2)CN1 (single isomer, unassigned) [Example 72]
- IC50 [1]: > 33800 nM
- IC50 [2, 4]: 229 nM
- IC50 (NaV1.5): > 33800 nM

SMILES: C[C@@H](N)[C@H](CNc1cc(F)c(S(=O)(=O)Nc2ncns2)cc1F)CC(N)CC(F)(F)F (single isomer, unassigned) [Example 85]
- IC50 [1]: > 33800 nM
- IC50 [2, 3]: 72 nM
- IC50 (NaV1.5): > 33800 nM

SMILES: CCC(CN)CC(CNc1cc(F)c(S(=O)(=O)Nc2ncns2)cc1F)[C@@H](C)N (single isomer, unassigned) [Example 93]
- IC50 [1]: > 33800 nM
- IC50 [2, 3]: 16 nM
- IC50 (NaV1.5): > 33800 nM

SMILES: C[C@@H](N)C(CNc1cc(F)c(S(=O)(=O)Nc2ncns2)cc1F)C[C@@]1(C)CCC[C@@H]1CN (single isomer, unassigned) [Example 97]
- IC50 [1]: > 33800 nM
- IC50 [2, 3]: 7 nM
- IC50 [2, 4]: 28 nM
- IC50 (NaV1.5): > 33800 nM

SMILES: CC(C)C(N)CC(CNc1cc(F)c(S(=O)(=O)Nc2ncns2)cc1Br)[C@@H](C)N (single isomer, unassigned) [Example 109]
- IC50 [1]: 697 nM
- IC50 [2, 3]: 3 nM
- IC50 (NaV1.5): 15600 nM

SMILES: C[C@@H](N)C(CNc1cc(F)c(S(=O)(=O)Nc2ncns2)cc1F)CC1NC2CCC1C2 (single isomer, unassigned) [Example 111]
- IC50 [1]: > 33800 nM
- IC50 [2, 4]: 65 nM
- IC50 (NaV1.5): 13000 nM

SMILES: C[C@H]1NCCNCC(C)(C)C[C@H]1CNc1cc(F)c(S(=O)(=O)Nc2ncns2)cc1Cl [Example 5, 5-chloro-2-fluoro-N-(1,2,4-thiadiazol-5-yl)-4-((((5R,6S)-5,8,8-trimethyl-1,4-diazonan-6-yl)methyl)amino)benzenesulfonamide]
- IC50 [1]: 20700 nM
- IC50 [2, 3]: 118 nM
- IC50 (NaV1.5): > 33800 nM

SMILES: C[C@@H](N)[C@H](CNc1cc(F)c(S(=O)(=O)Nc2ncns2)cc1F)CC1(CCN)CCC1 [Example 10, 4-(((2S,3R)-3-amino-2-((1-(2-aminoethyl)cyclobutyl)methyl)butyl)amino)-2,5-difluoro-N-(1,2,4-thiadiazol-5-yl)benzenesulfonamide]
- IC50 [1]: > 33800 nM
- IC50 [2, 3]: 8 nM
- IC50 (NaV1.5): > 33800 nM

SMILES: C[C@@H](N)[C@H](CNc1cc(F)c(S(=O)(=O)Nc2ccncn2)cc1Cl)CC(C)(C)CCN [Example 12, 4-(((S)-6-amino-2-((R)-1-aminoethyl)-4,4-dimethylhexyl)amino)-5-chloro-2-fluoro-N-(pyrimidin-4-yl)benzenesulfonamide]
- IC50 [1]: > 33800 nM
- IC50 [2, 3]: 133 nM
- IC50 (NaV1.5): > 33800 nM

SMILES: C[C@@H](N)[C@H](CNc1cc(F)c(S(=O)(=O)Nc2ncns2)cc1F)CC(N)C1(C)CC1 (stereo partly drawn) [Example 18, 4-(((2S)-4-amino-2-((R)-1-aminoethyl)-4-(1-methylcyclopropyl)butyl)amino)-2,5-difluoro-N-(1,2,4-thiadiazol-5-yl)benzenesulfonamide]
- IC50 [1]: > 33800 nM
- IC50 [2, 4]: 149 nM
- IC50 (NaV1.5): > 33800 nM

SMILES: CC(C)[C@@H](N)[C@H](CNc1cc(F)c(S(=O)(=O)Nc2ncns2)cc1Cl)CC(C)(C)CCN [Example 27, 4-(((S)-6-amino-2-((R)-1-amino-2-methylpropyl)-4,4-dimethylhexyl)amino)-5-chloro-2-fluoro-N-(1,2,4-thiadiazol-5-yl)benzenesulfonamide bis(2,2,2-trifluoroacetate)]
- IC50 [1]: > 33800 nM
- IC50 [2, 3]: 41 nM
- IC50 (NaV1.5): > 33800 nM

SMILES: CC(C)(CCN)C[C@@H](CNc1cc(F)c(S(=O)(=O)Nc2ncns2)cc1F)[C@H](N)C1CC1 [Example 28, 4-(((S)-6-amino-2-((R)-amino(cyclopropyl)methyl)-4,4-dimethylhexyl)amino)-2,5-difluoro-N-(1,2,4-thiadiazol-5-yl)benzenesulfonamide]
- IC50 [1]: > 33800 nM
- IC50 [2, 3]: 34 nM
- IC50 (NaV1.5): > 33800 nM

SMILES: CC(C)(CCN)C[C@@H](CNc1cc(F)c(S(=O)(=O)Nc2ncns2)cc1Cl)[C@H](N)CC1CC1 [Example 29, 4-(((S)-6-amino-2-((R)-1-amino-2-cyclopropylethyl)-4,4-dimethylhexyl)amino)-5-chloro-2-fluoro-N-(1,2,4-thiadiazol-5-yl)benzenesulfonamide bis(2,2,2-trifluoroacetate)]
- IC50 [1]: > 33800 nM
- IC50 [2, 3]: 95 nM
- IC50 (NaV1.5): > 33800 nM

SMILES: C[C@@H](N)[C@H](CNc1ncc(S(=O)(=O)Nc2ncns2)cc1Br)CC(C)(C)CCN [Example 30, 6-(((S)-6-amino-2-((R)-1-aminoethyl)-4,4-dimethylhexyl)amino)-5-bromo-N-(1,2,4-thiadiazol-5-yl)pyridine-3-sulfonamide]
- IC50 [1]: > 33800 nM
- IC50 [2, 3]: 77 nM
- IC50 (NaV1.5): > 33800 nM
